From patent publication US20130323767A1, “Method to Identify Liver Toxicity Using Metabolite Profiles” (STRAND LIFE SCIENCES PRIVATE LIMITED, priority 2011, published 2013)

Key:
Type in all cases: biochemical
Conditions in all cases: experimental data or published literature, primary rat hepatocyte cultures
[1] = tested on: Glutathione peroxidase (cytosolic); experiment: Observed % change in glutathione peroxidase (cytosolic)
Description: (§1) Liver specific cells or cell-lines are treated with known doses of drugs or toxicants. Upon treatment, the cells are harvested and cellular extracts prepared. In these extracts, the drug-induced alterations in metabolite profiles can be obtained by any technique such as biochemical assays, mass spectrometry, NMR or any other technique for obtaining metabolite profile known in the art. These are then compared with values obtained in the absence of the drug. Metabolites with significant alterations from their untreated values are identified. This generates what is referred to as altered metabolites 1.
(§2) All metabolite profiles upon drug treatment are obtained experimentally from primary rat hepatocyte cultures. The drug-induced metabolite profiles are then compared with those from untreated cells to obtain altered metabolites 1. The CMA-ES procedure described above is applied wherein, an initial population of 40 randomly generated parameter sets with fitness criteria of 10^−8 is used and the set of likely altered parameters are estimated for the following drugs. Further, a set of biochemical assays are carried out wherever possible to experimentally measure the level of parameter alteration.
(§3) For the validation of this disclosure, biochemical enzymatic assays are used. However, methods such as NMR, or mass spectrometry can also be used for metabolite data collection. […]

k proton leak = experiment: Observed % change in k proton leak
Description: as §1, §2, §3

[2] = tested on: Carnitine palmitoyl transferase; experiment: Observed % change in carnitine palmitoyl transferase
Description: as §1, §2, §3

[3] = tested on: Glutathione peroxidase (mitochondrial); experiment: Observed % change in glutathione peroxidase (mitochondrial)
Description: as §1, §2, §3

k Ca2+/Na+ = experiment: Observed % change in k Ca2+/Na+
Influx of fatty acids = experiment: Observed % change in influx of fatty acids, drug-treated hepatocytes
Description: as §1, §2, §3

[4] = tested on: Glutathione reductase (mitochondrial); experiment: Observed % change in glutathione reductase (mitochondrial)
Description: as §1, §2, §3

[5] = tested on: Glutathione reductase (cytosolic); experiment: Observed % change in glutathione reductase (cytosolic)
Description: as §1, §2, §3

fof1ATPase = experiment: Observed % change in concentration of fof1ATPase
Description: as §1, §2, §3

[6] = tested on: Gamma glutamyl cysteine synthetase; experiment: Observed % change in gamma glutamyl cysteine synthetase
Description: as §1, §2, §3

SMILES	Glutathione peroxidase (cytosolic), observed % change [1] [%]	k proton leak, observed % change (k proton leak) [%]	Carnitine palmitoyl transferase, observed % change [2] [%]	Glutathione peroxidase (mitochondrial), observed % change [3] [%]	k Ca2+/Na+, observed % change (k Ca2+/Na+) [%]	Influx of fatty acids, observed % change (Influx of fatty acids) [%]	Glutathione reductase (mitochondrial), observed % change [4] [%]	Glutathione reductase (cytosolic), observed % change [5] [%]	Concentration_of_fof1ATPase, observed % change (fof1ATPase) [%]	Gamma glutamyl cysteine synthetase, observed % change [6] [%]
O=C(O)Cc1ccccc1Nc1c(Cl)cccc1Cl [Diclofenac]	7.00	400.00	0.00	21.00	900.00	−9.00	20.00	360.00	−22.00	0.00
CCCC(CCC)C(=O)O [Valproic acid]	−22.00	400.00	−70.00	−44.00	900.00	−36.00	−60.00	40.00	−1.00	−53.00
